Measurements taken from ChEMBL document CHEMBL1938339, “Tripeptidic BACE1 inhibitors devised by in-silico conformational structure-based design” (Bioorg Med Chem Lett, 2012).

biological target: Beta-secretase 1 (Homo sapiens) (UniProt P56817); test: Inhibition of human recombinant BACE1 at 2 uM by FRET assay
Sequence (P56817 whole entry): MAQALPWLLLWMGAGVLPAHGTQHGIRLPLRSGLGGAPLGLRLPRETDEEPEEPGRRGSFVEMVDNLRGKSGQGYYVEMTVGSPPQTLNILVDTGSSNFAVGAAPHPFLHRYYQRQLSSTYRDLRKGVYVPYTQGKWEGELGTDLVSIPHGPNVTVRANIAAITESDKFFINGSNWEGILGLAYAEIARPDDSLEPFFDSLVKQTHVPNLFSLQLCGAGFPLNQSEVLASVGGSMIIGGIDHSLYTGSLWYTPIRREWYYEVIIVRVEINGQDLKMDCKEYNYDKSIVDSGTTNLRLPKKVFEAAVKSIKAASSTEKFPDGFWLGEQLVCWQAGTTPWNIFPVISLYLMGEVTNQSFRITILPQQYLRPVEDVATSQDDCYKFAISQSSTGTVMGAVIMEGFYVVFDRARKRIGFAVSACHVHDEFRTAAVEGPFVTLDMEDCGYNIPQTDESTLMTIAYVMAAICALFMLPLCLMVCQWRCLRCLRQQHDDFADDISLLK

| inhibition [%] | SMILES |
| --- | --- |
| 91 | CC(C)C[C@H](NC(=O)[C@@H](NC(=O)[C@@H](N)CNC(=O)c1[nH]c(=O)[nH]c(=O)c1F)C(C)C)C(=O)NC(C)(C)CC1CCCCC1 |
| 96 | CC(C)[C@H](NC(=O)[C@@H](N)CNC(=O)c1[nH]c(=O)[nH]c(=O)c1F)C(=O)N[C@@H](CC1CCCCC1)C(=O)NC(C)(C)Cc1ccc(I)cc1I |
| 85 | COc1ccc(CC(C)(C)NC(=O)[C@H](CC2CCCCC2)NC(=O)[C@@H](NC(=O)[C@@H](N)CNC(=O)c2[nH]c(=O)[nH]c(=O)c2F)C(C)C)cc1 |
| 81 | CC(C)[C@H](NC(=O)[C@@H](N)CNC(=O)c1cc(O)ccc1O)C(=O)N[C@@H](CC1CCCCC1)C(=O)NC(C)(C)Cc1ccc(Br)cc1 |
| 89 | CC(C)[C@H](NC(=O)[C@@H](N)CNC(=O)c1[nH]c(=O)[nH]c(=O)c1F)C(=O)N[C@@H](CC1CCCCC1)C(=O)NC(C)(C)Cc1ccc([N+](=O)[O-])cc1 |
| 91 | CC(C)[C@H](NC(=O)[C@@H](N)CNC(=O)c1[nH]c(=O)[nH]c(=O)c1F)C(=O)N[C@@H](CC1CCCCC1)C(=O)NC(C)(C)Cc1cc(F)cc(F)c1 |
| 92 | CC(C)[C@H](NC(=O)[C@@H](N)CNC(=O)c1[nH]c(=O)[nH]c(=O)c1F)C(=O)N[C@@H](CC1CCCCC1)C(=O)NC(C)(C)Cc1ccc(Br)cc1 |
| 84 | COc1cccc(CC(C)(C)NC(=O)[C@H](CC(C)C)NC(=O)[C@@H](NC(=O)[C@@H](N)CNC(=O)c2[nH]c(=O)[nH]c(=O)c2F)C(C)C)c1 |
| 77 | COc1cccc(CC(C)(C)NC(=O)[C@H](CC2CCCCC2)NC(=O)[C@@H](NC(=O)[C@@H](N)CNC(=O)c2[nH]c(=O)[nH]c(=O)c2F)C(C)C)c1 |
| 90 | CC(C)C[C@H](NC(=O)[C@@H](NC(=O)[C@@H](N)CNC(=O)c1[nH]c(=O)[nH]c(=O)c1F)C(C)C)C(=O)NC(C)(C)Cc1ccccc1 |
| 27 | CC(C)C[C@H](NC(=O)[C@@H](NC(=O)[C@@H](N)CNC(=O)c1[nH]c(=O)[nH]c(=O)c1F)C(C)C)C(=O)NC(C)(C)Cc1ccc([N+](=O)[O-])cc1 |
| 86 | Cc1ccc(CC(C)(C)NC(=O)[C@H](CC(C)C)NC(=O)[C@@H](NC(=O)[C@@H](N)CNC(=O)c2[nH]c(=O)[nH]c(=O)c2F)C(C)C)cc1 |
| 80 | CC(C)[C@H](NC(=O)[C@@H](N)CNC(=O)c1cc(O)ccc1O)C(=O)N[C@@H](CC1CCCCC1)C(=O)NC(C)(C)Cc1ccc([N+](=O)[O-])cc1 |
| 88 | CC(C)[C@H](NC(=O)[C@@H](N)CNC(=O)c1[nH]c(=O)[nH]c(=O)c1F)C(=O)N[C@@H](CC1CCCCC1)C(=O)NC(C)(C)CC1CCCCC1 |
| 92 | CC(C)[C@H](NC(=O)[C@@H](N)CNC(=O)c1[nH]c(=O)[nH]c(=O)c1F)C(=O)N[C@@H](CC1CCCCC1)C(=O)NC(C)(C)Cc1ccccc1 |
| 84 | Cc1ccccc1CC(C)(C)NC(=O)[C@H](CC1CCCCC1)NC(=O)[C@@H](NC(=O)[C@@H](N)CNC(=O)c1[nH]c(=O)[nH]c(=O)c1F)C(C)C |
| 85 | CC(C)C[C@H](NC(=O)[C@@H](NC(=O)[C@@H](N)CNC(=O)c1[nH]c(=O)[nH]c(=O)c1F)C(C)C)C(=O)NC(C)(C)Cc1ccc(Br)cc1 |
| 83 | COc1ccc(CC(C)(C)NC(=O)[C@H](CC(C)C)NC(=O)[C@@H](NC(=O)[C@@H](N)CNC(=O)c2[nH]c(=O)[nH]c(=O)c2F)C(C)C)cc1 |
| 88 | Cc1ccc(CC(C)(C)NC(=O)[C@H](CC2CCCCC2)NC(=O)[C@@H](NC(=O)[C@@H](N)CNC(=O)c2[nH]c(=O)[nH]c(=O)c2F)C(C)C)cc1 |

The next lines start with the compound.

| SMILES | inhibition [%] |
| --- | --- |
| CC(C)C[C@H](NC(=O)[C@@H](NC(=O)[C@@H](N)CNC(=O)c1[nH]c(=O)[nH]c(=O)c1F)C(C)C)C(=O)N1CCCCCCC1 | 85 |
| CC(C)C[C@H](NC(=O)[C@@H](NC(=O)[C@@H](N)CNC(=O)c1cc(O)ccc1O)C(C)C)C(=O)NC(C)(C)Cc1ccc([N+](=O)[O-])cc1 | 45 |
| CC(C)[C@H](NC(=O)[C@@H](N)CNC(=O)c1nn[nH]n1)C(=O)N[C@@H](CC1CCCCC1)C(=O)NC(C)(C)Cc1ccccc1 | 76 |
| CC(C)[C@H](NC(=O)[C@@H](N)CNC(=O)c1cc(O)ccc1O)C(=O)N[C@@H](CC1CCCCC1)C(=O)NC(C)(C)Cc1ccc(I)cc1I | 88 |
| COc1ccc(CC(C)(C)NC(=O)[C@H](CC(C)C)NC(=O)[C@@H](NC(=O)[C@@H](N)CNC(=O)c2cc(O)ccc2O)C(C)C)cc1 | 41 |
| CC(C)C[C@H](NC(=O)[C@@H](NC(=O)[C@@H](N)CNC(=O)c1[nH]c(=O)[nH]c(=O)c1F)C(C)C)C(=O)N1CCCCCC1 | 89 |
| CC(C)C[C@H](NC(=O)[C@@H](NC(=O)[C@@H](N)CCC(=O)O)C(C)C)C(=O)NC(C)(C)Cc1ccccc1 | < 10 |
| CC(C)C[C@H](NC(=O)[C@@H](NC(=O)[C@@H](N)CNC(=O)c1cc(O)ccc1O)C(C)C)C(=O)NC(C)(C)Cc1ccc(I)cc1I | 78 |
| CC(C)C[C@H](NC(=O)[C@@H](NC(=O)[C@@H](N)CNC(=O)c1[nH]c(=O)[nH]c(=O)c1F)C(C)C)C(=O)NC(C)(C)Cc1cc(F)cc(F)c1 | 86 |
| CC(C)[C@H](NC(=O)[C@@H](N)CCC(=O)O)C(=O)N[C@@H](CC1CCCCC1)C(=O)NC(C)(C)Cc1ccccc1 | 16 |
| Cc1ccccc1CC(C)(C)NC(=O)[C@H](CC(C)C)NC(=O)[C@@H](NC(=O)[C@@H](N)CNC(=O)c1[nH]c(=O)[nH]c(=O)c1F)C(C)C | 91 |
| CC(C)C[C@H](NC(=O)[C@@H](NC(=O)[C@@H](N)CNC(=O)c1nn[nH]n1)C(C)C)C(=O)NC(C)(C)Cc1ccccc1 | 70 |
| COc1cccc(CC(C)(C)NC(=O)[C@H](CC(C)C)NC(=O)[C@@H](NC(=O)[C@@H](N)CNC(=O)c2cc(O)ccc2O)C(C)C)c1 | 46 |
| CC(C)C[C@H](NC(=O)[C@@H](NC(=O)[C@@H](N)CNC(=O)c1[nH]c(=O)[nH]c(=O)c1F)C(C)C)C(=O)N1CCCCCCCC1 | 81 |
| COc1ccc(CC(C)(C)NC(=O)[C@H](CC2CCCCC2)NC(=O)[C@@H](NC(=O)[C@@H](N)CNC(=O)c2cc(O)ccc2O)C(C)C)cc1 | 45 |
| COc1cccc(CC(C)(C)NC(=O)[C@H](CC2CCCCC2)NC(=O)[C@@H](NC(=O)[C@@H](N)CNC(=O)c2cc(O)ccc2O)C(C)C)c1 | 49 |
| Cc1ccc(CC(C)(C)NC(=O)[C@H](CC(C)C)NC(=O)[C@@H](NC(=O)[C@@H](N)CNC(=O)c2cc(O)ccc2O)C(C)C)cc1 | 51 |
| CC(C)C[C@H](NC(=O)[C@@H](NC(=O)[C@@H](N)CNC(=O)c1[nH]c(=O)[nH]c(=O)c1F)C(C)C)C(=O)N1CCCCC1 | 91 |
| CC(C)C[C@H](NC(=O)[C@@H](NC(=O)[C@@H](N)CNC(=O)c1cc(O)ccc1O)C(C)C)C(=O)NC(C)(C)Cc1ccccc1 | 77 |
| CC(C)[C@H](NC(=O)[C@@H](N)CNC(=O)c1cc(O)ccc1O)C(=O)N[C@@H](CC1CCCCC1)C(=O)NC(C)(C)Cc1ccccc1 | 80 |
| CC(C)C[C@H](NC(=O)[C@@H](NC(=O)[C@@H](N)CNC(=O)c1[nH]c(=O)[nH]c(=O)c1F)C(C)C)C(=O)N1CCCC1 | 88 |
| CC(C)C[C@H](NC(=O)[C@@H](NC(=O)[C@@H](N)CNC(=O)c1cc(O)ccc1O)C(C)C)C(=O)NC(C)(C)Cc1cc(F)cc(F)c1 | 59 |
| CC(C)C[C@H](NC(=O)[C@@H](NC(=O)[C@@H](N)CNC(=O)c1[nH]c(=O)[nH]c(=O)c1F)C(C)C)C(=O)NC(C)(C)Cc1ccc(I)cc1I | 91 |
| Cc1ccccc1CC(C)(C)NC(=O)[C@H](CC1CCCCC1)NC(=O)[C@@H](NC(=O)[C@@H](N)CNC(=O)c1cc(O)ccc1O)C(C)C | 54 |
